Laboratory results: patent US12433861B2, “Compositions and methods for treating reperfusion injury or hemorrhage after recanalization therapy” (GNT Pharma Co., Ltd., priority 2020, dated 2025)
“Also recorded” adds a separate entry of the source.

Legend:
[1] = test system: adult rats treated with rt-PA after 3-h tMCAO; test: rt-PA-induced hemorrhagic transformation following 3-h occlusion of middle cerebral artery (tMCAO); format: in vivo, rat; conditions: for hemorrhage / hemorrhagic transformation in the brain: 10 mg/kg rt-PA IV plus 30 mg/kg IV after reperfusion, 3-h tMCAO, 24 h, potassium salt
Procedure: Male Sprague-Dawley rats (300-350 g; 15-16 animals/group) were anesthetized with chloral hydrate (400 mg/kg, IP) and the anesthesia was sustained for about 1.5 h during the procedure. The rectal temperature was recorded and maintained at 37.0-37.5° C. using a rectal probe and homoeothermic blanket controlled by a temperature control unit (Letica Scientific Instruments). Occlusion of the MCA was done according to the previous report (Gwag et al., 2007). Briefly, the right common carotid artery, external carotid artery (ECA), and internal carotid artery (ICA) were exposed. A length of 4-0 monofilament nylon suture (17 mm, pre-coated with silicone) with its tip rounded by heating near a flame was advanced from the lumen of the ICA until it blocked the origin of the middle cerebral artery (MCA). The suture remained for 3 h and was withdrawn for reperfusion. After 24 h, the brain was removed immediately, placed in the fixative for 15 min, and used for further analysis.
Animals received transient focal cerebral ischemia for 3 h as described above with intravenous administration of 10 mg/kg rt-PA or 10 mg/kg rt-PA plus 30 mg/kg nelonemdazK after reperfusion. rt-PA (10 mg/kg) dissolved in water for injection ([…]) was injected through femoral vein over 20 min from 5 min after reperfusion. NelonemdazK (30 mg/kg) dissolved in saline (6 mg/mL; 5 mL/kg) was injected through femoral vein over 5 min immediately after the end of rt-PA infusion.

[2] = test system: acute ischemic stroke patients; test: SONIC phase II trial: acute ischemic stroke patients receiving endovascular thrombectomy with or without rt-PA; format: in vivo, human; conditions: for ratio of mRS 0-2 or 0: vs placebo, potassium salt
Procedure: The SONIC trial was to examine efficacy and safety of the intravenous infusions of nelonemdazK for acute ischemic stroke patients (adults≥19) receiving endovascular thrombectomy with or without rt-PA within 8 hours of onset as described (Hong et al., 2018). A total of 209 patients were enrolled for the SONIC trial and allocated randomly in a double-blinded manner to one of 3 groups for the intravenous infusions of test drugs as follows: (Group A) placebo [0.9% normal saline], (Group B) 2,750 mg nelonemdazK for 5 days [500 mg for 1st infusion followed by 2nd-10th infusions approximately at 12 h intervals (250 mg for each infusion)], and (Group C) 5,250 mg nelonemdazK for 5 days [750 mg for 1st infusion followed by 2nd-10th infusions approximately at 12 h intervals (500 mg for each)].
Acute ischemic stroke patients due to occlusion in carotid internal carotid artery system within 8 hours of onset were enrolled. Enrolled patients presented the National Institutes of Health Stroke Scale (NIHSS: range 0-42, with higher scores indicating greater stroke severity) scores and Alberta stroke program early CT score (ASPECTS: a 10-point quantitative topographic CT scan score used in patients with middle cerebral artery (MCA) stroke, with lower scores indicating larger cerebral infarction)≥6.
For statistical analysis, Cochran-Mantel-Haenszel (CMH) chi-square test was conducted to compare distribution and ratio of mRS scores for each group at 1, 4, and 12 weeks after drug treatment. Ordinal logistic regression was applied with multivariate analysis controlling confounding variables that may cause difference between the groups in participating institutions and baseline scores. In addition, generalized estimating equation (GEE) analysis was conducted to compare the changes between groups in mRS scores measured at 1, 4, and 12 weeks after drug treatment. For the analysis of the Barthel Index score and adverse events, chi-square test or Fisher exact test was conducted to compare difference between groups at 1, 4, and 12 weeks after drug treatment.
Acute ischemic stroke patients who presented the baseline NIHSS score≥8 and the mRS distribution of 2-5 were enrolled for the SONIC trial. Out of a total of 209 patients, 152 patients successfully completed procedures including drug treatment for 5 days and scheduled analysis over 12 weeks after drug treatment according to the clinical protocol approved by Korea Ministry of Food and Drug Safety. […] The shift analysis implies that administration of nelonemdazK reduces disability in acute stroke patients treated with endovascular thrombectomy.

**Q.** For O=C([O-])c1cc(NCc2c(F)c(F)c(C(F)(F)F)c(F)c2F)ccc1O.[K+] [nelonemdazK, 2-Hydroxy-5-(2,3,5,6-tetrafluoro-4-trifluoromethylbenzylamino)benzoic acid potassium salt], which “rate of hemorrhagic transformation” value ([1]; 10 mg/kg rt-PA IV plus 30 mg/kg IV after 3-h tMCAO, p<0.05 Fisher's exact test) is on record?
**A.** significantly reduced

**Q.** And the “hemorrhage / hemorrhagic transformation in the brain” value ([1]; listed as NelonemdazK)?
**A.** prevented hemorrhage

**Q.** What about the “hemorrhage / hemorrhagic transformation in the brain” value [1] of the same compound?
**A.** prevents hemorrhagic transformation

**Q.** What about the “ratio of mRS 0” value ([2]; 1 week, high dose (5,250 mg) (placebo 2.04%, p=0.01)) of the same compound?
**A.** 16.67%

**Q.** And the “ratio of mRS 0” value ([2]; 1 week, low dose (2,750 mg) (placebo 2.04%, p=0.04))?
**A.** 12.96%

**Q.** And the “ratio of mRS 0” value ([2]; 4 weeks, high dose (5,250 mg) (placebo 6.12%, p=0.007))?
**A.** 26.67%

**Q.** What about the “ratio of mRS 0” value ([2]; 4 weeks, low dose (2,750 mg) (placebo 6.12%, p=0.04)) of the same compound?
**A.** 20%

**Q.** What about the “ratio of mRS 0” value ([2]; 12 weeks, high dose (5,250 mg) (placebo 8.16%, p=0.004)) of the same compound?
**A.** 31.25%

**Q.** And the “ratio of patients with Barthel Index score higher than 90” value ([2]; 12 weeks, high dose (placebo 41.86%, p<0.05))?
**A.** 64.44%

**Q.** And the “ratio of mRS 0” value ([2]; 12 weeks, low dose (2,750 mg) (placebo 8.16%, p=0.03))?
**A.** 23.64%

**Q.** What about the “ratio of patients with Barthel Index score higher than 90” value ([2]; 12 weeks, low dose (placebo 41.86%)) of the same compound?
**A.** 54.72%

**Q.** And the drug-related adverse events ([2]; IV up to 5,250 mg for 5 days, 12 weeks follow-up)?
**A.** no drug-related adverse events

**Q.** And the “ratio of mRS 0-2 or 0” value ([2]; high dose (5,250 mg, N=48), over 12 weeks)?
**A.** further increased; also recorded: increases

**Q.** What about the “ratio of mRS 0-2 or 0” value ([2]; low dose (2,750 mg, N=55), over 12 weeks) of the same compound?
**A.** further increased; also recorded: increases

**Q.** And the “occurrence of adverse events and serious adverse events vs placebo” value ([2]; over 12 weeks)?
**A.** no difference

**Q.** What about the mortality rate ([2]; over 12 weeks, high dose group (N=67) (placebo 8.57%)) of the same compound?
**A.** 4.48%

**Q.** And the mortality rate ([2]; over 12 weeks, low dose group (N=71) (placebo 8.57%))?
**A.** 4.23%
